This is an account of results in patent US6727257B1, “5-(heterocyclic alkyl)-6-aryl-dihydropyrimidines” (Synaptic Pharmaceutical Corporation, priority 1994, dated 2004).

By melting point is commonly meant the temperature of the solid-liquid transition.

The structures appear in SMILES notation. Counter-ions that a name gives are not always drawn.

In turn, `COC(=O)C1=C(C)NC(=O)N(C(=O)NCCCN2CCC(c3ccccn3)CC2)C1c1ccc(F)c(F)c1` (stereo not drawn) (as salt: hydrochloride) [Example 21, 6-(3,4-Difluorophenyl)-5-methoxycarbonyl-4-methyl-2-oxo-1-{N-[4-(2-pyridyl)-piperidine-1-yl]propyl)carboxamido-1,2,3,6-tetrahydropyrimidine Dihydrochloride] came in with a melting point of 170 to 174 °C.

With `COC(=O)C1=C(C)N=C(C)N(CCCC(O)CN2CCC(c3ccccn3)CC2)C1c1ccc(F)c(F)c1` (single isomer, unassigned; (+)) (as salt: HCl) [Example 62, (+)-6-(3,4-Difluorophenyl)-1,6-dihydro-1-(4-hydroxy-5-(4-(2-pyridyl)piperidin-1-yl)pentyl)-5-methoxycarbonyl-2,4-dimethylpyrimidine], the melting point was in the range of 163 to 165 °C.

In turn, `COC(=O)C1=C(C)N=C(C)N(CCCCCN2CCC(C(=O)OC)(c3ccccc3)CC2)C1c1ccc(F)c(F)c1` (stereo not drawn) (as salt: HCl) [Example 23, 6-(3,4-Difluorophenyl)-1,6-dihydro-5-methoxycarbonyl-1-(5-(4-methoxycarbonyl-4-phenylpiperidin-1-yl)-pentyl)-2,4-dimethylpyrimidine] had a melting point of 170 to 176 °C.

On to `COC(=O)C1=C(C)N=C(C)N(CCCCCNCCCc2ccccc2)C1c1ccc(F)c(F)c1` (stereo not drawn) (as salt: HCl) [Example 61, 6-(3,4-Difluorophenyl)-1,6-dihydro-5-methoxycarbonyl-2,4-dimethyl-1-(5-(3-phenylpropylamino)pentyl)pyrimidine], for which the melting point was 95 to 97 °C.

`COCN1C(C)=NC(C)=C(C(=O)NCCCN2CCC(C(=O)OC)(c3ccccc3)CC2)C1c1ccc(F)c(F)c1` (stereo not drawn) yielded a melting point of 53 to 57 °C.

Regarding `CNC(=O)C1=C(C)N=C(C)N(CCCCCN2CCC(C(=O)OC)(c3ccccc3)CC2)C1c1ccc(F)cc1F` (stereo not drawn) (as salt: HCl), the melting point is 152 to 155 °C.
